Laboratory results as given in patent US9725460B2, “Oridonin analogs, compositions, and methods related thereto” (THE BOARD OF REGENTS OF THE UNIVERSITY OF TEXAS SYSTEM, priority 2013, dated 2017).
≈ marks a conversion by molar mass, not a printed value. Where two headings read alike, the source gives them in different places.

Experiments:
MCF-7 = test: MTT cancer cell proliferation assay, MCF-7; assay type: cell-based, human; conditions: Homo sapiens
Outline: (§1)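 Cells seeded at 1×10^4/well and exposed 48 h to 0.01-100 μM compound (0.01, 0.1, 1, 5, 10, 100 μM) or DMSO. MTT added for a further 4 h, formazan dissolved in DMSO and OD read at 550 nm; quadruplicate wells per concentration. MCF-7 is ER-positive; MDA-MB-231 ER-negative, triple-negative.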

MDA-MB-231 = test: MTT cancer cell proliferation assay, MDA-MB-231; assay type: cell-based, human; conditions: Homo sapiens
Outline: as §1

AsPC1 = test: Cancer cell proliferation assay, AsPC1; assay type: cell-based; conditions: Homo sapiens, ASPC1
Protocol: (§2) In Vitro Determination of Effects of Synthesized Diterpenoids on Cancer Cell Proliferation. […] Then MTT solution was removed, and 150 μL of DMSO was added to each well. Absorbance of all wells was determined by measuring OD at 550 nm after a 10 min incubation on a 96-well GlowMaxate absorbance reader (Promega, Madison, Wis.). Each individual compound was tested in quadruplicate wells for each concentration.

Panc-1 = test: Cancer cell proliferation assay, Panc-1; assay type: cell-based; conditions: Homo sapiens, PANC-1
Protocol: as §2

DU145 = test: Cancer cell proliferation assay, DU145; assay type: cell-based; conditions: Homo sapiens, DU-145
[1] = tested on: xenograft tumors (breast cancer MDA-MB-231); test: MDA-MB-231 xenograft tumor growth in mice; assay type: in vivo; conditions: 5.0 mg/kg ip; triple-negative MDA-MB-231 xenograft; p<0.0001
Source text: (§3) FIG. 14. […] Values are mean±SE of three independent experiments.
(§4) In pilot in vivo studies, this compound was further evaluated for its anticancer activity in suppression of tumor growth in the triple-negative breast cancer MDA-MB-231 xenograft model.

[2] = Body weight and tolerability in xenograft mice; conditions: 5.0 mg/kg ip
Source text: as §3, §4

[3] = tested on: breast, pancreatic, and prostate cancer cell lines; test: Anti-proliferation effects against cancer cell lines; assay type: cell-based, human; conditions: summary of Tables 1 and 2
Protocol: (§5) In Vitro Determination of Effects of Synthesized Diterpenoids on Cancer Cell Proliferation. Breast cancer cell lines MCF-7, MDA-MB-231, […] and MCF/ADR were seeded in 96-well plates at a density of 1×10^4 cells/well and treated with DMSO and 0.01, 0.1, 1, 5, 10, and 100 μM of individual compound for 48 h, and then 20 μL of 3-(4,5-dimethylthiazol-2-yl)-2,5-diphenyltetrazolium bromide (MTT) (5 mg/mL in PBS) was added to each well and further incubated for another 4 h. Then MTT solution was removed, and 150 μL of DMSO was added to each well. Absorbance of all wells was determined by measuring OD at 550 nm after a 10 min incubation on a 96-well GlowMaxate absorbance reader (Promega, Madison, Wis.). Each individual compound was tested in quadruplicate wells for each concentration.

MDA-MB-468 = test: MTT cancer cell proliferation assay, MDA-MB-468; assay type: cell-based, human; conditions: Homo sapiens, MDA-MB-468, 48 h, Table 3; pyran-fused diterpenoids; MTT 48 h; mean ± SE of three experiments
Protocol: as §5
(§6) The growth inhibitory effects of the newly generated pyran-fused diterpenoids were evaluated in four breast cancer cell lines MCF-7 (ER-positive), MDAMB-231 (ER-negative and triple-negative), MDA-MB-468 (ER-negative and triple-negative) as well as MCF-7/ADR (adriamycin-resistant) using MTT assays as described in the Experimental Section. The capability of these new molecules to inhibit the growth of cancer cells was summarized in Table 3 and compared with that of adriamycin and 1 spontaneously.

MCF-7/ADR [4] = test: MTT growth inhibition, drug-resistant MCF-7/ADR; assay type: cell-based, human; conditions: Homo sapiens, NCI/ADR-RES, 48 h, Table 3; adriamycin-resistant; MTT 48 h; mean ± SE of three experiments
Protocol: as §5, §6

Aqueous solubility = assay type: physicochemical; conditions: water; compound as such; read-out: Aqueous solubility
MCF-7/ADR [5] = test: MTT growth inhibition, drug-resistant MCF-7/ADR; assay type: cell-based; conditions: Homo sapiens, NCI/ADR-RES, 24 h, Table 1d; drug-resistant breast cancer cells; mean ± SE of three experiments
[6] = tested on: acute myeloid leukemic cells; conditions: Zhou et al., Blood 2007; read-out: IC50, induction of mitochondrial apoptosis; cited from earlier work
leukemia = conditions: 15 mg/kg; Zhou et al., Blood 2007; cited from earlier work
HMEC cells = test: Toxicity in HMEC cells; assay type: cell-based
MDA-MB-231 cells = test: Colony formation in MDA-MB-231 cells; assay type: cell-based
[7] = MCF7, Table 1a, breast cancer, read-out: IC50 (μM) MCF-7
[8] = MCF7, Table 2b, mean of at least three experiments, read-out: Effect on proliferation MCF-7 (ER positive) (IC50)
[9] = MDA-MB-231, Table 1a, breast cancer, read-out: IC50 (μM) MDA-MB-231
[10] = MDA-MB-231, Table 2b, mean of at least three experiments, read-out: Effect on proliferation MDA-MB-231 (ER negative) (IC50)
[11] = Table 1a, pancreatic cancer, read-out: IC50 (μM) AsPC1
[12] = Table 2b, mean of at least three experiments, read-out: Effect on proliferation AsPC1 (IC50)
[13] = Table 1a, pancreatic cancer, read-out: IC50 (μM) Panc-1
[14] = Table 2b, mean of at least three experiments, read-out: Effect on proliferation Panc-1 (IC50)
[15] = Table 1a, prostate cancer, read-out: IC50 (μM) DU145
[16] = Table 2b, mean of at least three experiments, read-out: Effect on proliferation DU145 (IC50)
[17] = MCF7, Table 1c, dienone analogues, mean ± SE of three experiments, read-out: Antiproliferative effect MCF-7 (IC50)
[18] = MCF7, Table 2a, A-ring modified analogues, read-out: IC50 (μM) MCF-7
[19] = MDA-MB-231, Table 1c, dienone analogues, mean ± SE of three experiments, read-out: Antiproliferative effect MDA-MB-231 (IC50)
[20] = MDA-MB-231, Table 2a, A-ring modified analogues, read-out: IC50 (μM) MDA-MB-231

Structure (SMILES)	IC50 (MCF-7; [7])	IC50 (MCF-7; [8])	IC50 (MDA-MB-231; [9])	IC50 (MDA-MB-231; [10])	IC50 (AsPC1; [11])	IC50 (AsPC1; [12])	IC50 (Panc-1; [13])	IC50 (Panc-1; [14])	IC50 (DU145; [15])	IC50 (DU145; [16])	Inhibition of xenograft tumor growth compared to oridonin at the same dose [1]	Loss of body weight [2]	Tolerability during the experiments [2]	IC50 values, anti-proliferation effects against cancer cell lines [3]	IC50 (MCF-7; [17])	IC50 (MCF-7; [18])	IC50 (MDA-MB-231; [19])	IC50 (MDA-MB-231; [20])	IC50 (MCF-7/ADR [5])	further results
C=CCNc1nc2c(s1)CC(C)(C)[C@H]1[C@H](O)[C@@]3(O)OC[C@@]21[C@@H]1CC[C@H]2C(=C)C(=O)[C@]13[C@@H]2O [CYD-6-18, (5aR,6S,7S,7aR,10S,12aS,12bR,15R)-2-(allylamino)-6,7,15-trihydroxy-5,5-dimethyl-9-methylene-5,5a,6,7,10,11,12,12a-octahydro-4H-7,12b-(epoxymethano)-7a,10-methanocyclohepta[7,8]naphtho[1,2-d]thiazol-8(9H)-one]	0.18 µM	0.2 µM	0.18 µM	0.2 µM	1.05 µM	1.1 µM	1.1 µM	1.1 µM	1.18 µM	1.2 µM	much better effect in inhibiting tumor growth	no significant loss of body weight	tolerated	low micromolar to nanomolar	–	–	–	–	–	–
C=C1C(=O)[C@]23[C@H](O)[C@H]1CC[C@H]2[C@@]12COC3(O)[C@@H](O)[C@@H]1C(C)(C)CC[C@@H]2O [Oridonin]	6.64 µM	6.6 µM	29.4 µM	29.4 µM	34.5 µM	19.3 µM	13.4 µM	15.6 µM	14.2 µM	14.2 µM	–	–	–	–	4.36 ± 1.41 µM	6.64 µM	28 ± 1.4 µM	29.4 µM	> 30 µM	IC50 (MCF-7; MCF7, 48 h, Table 3, pyran-fused diterpenoids, MTT 48 h, mean ± SE of three experiments, read-out: IC50 (μM) MCF-7): 4.36 ± 1.41 µM; IC50 (MCF-7; MCF7, Table 1b, triazole substituted analogues, mean of three experiments, read-out: IC50 (μM) MCF-7): 6.6 µM; IC50 (MDA-MB-231; MDA-MB-231, 48 h, Table 3, pyran-fused diterpenoids, MTT 48 h, mean ± SE of three experiments, read-out: IC50 (μM) MDA-MB-231): 28 ± 1.4 µM; IC50 (MDA-MB-231; MDA-MB-231, Table 1b, triazole substituted analogues, mean of three experiments, read-out: IC50 (μM) MDA-MB-231): 29.4 µM; IC50 (MDA-MB-468): 5.33 ± 1.36 µM; IC50 (MCF-7/ADR [4]): 34.8 ± 2.54 µM; solubility (Aqueous solubility): 1290 µg/mL (≈ 3.54 mM); IC50 [6]: 2 µM; Anti-leukemia activities in murine models (leukemia): substantial anti-leukemia activities with a low side-effect
C=C1C(=O)[C@@]23[C@@H]4OC(C)(C)OC25OC[C@]2(C=CC(=O)C(C)(C)[C@H]2[C@@H]5O)[C@@H]3CC[C@@H]14 [CYD-6-86, (3S,3aR,3a^1R,6aR,7S,7aS,11aR,11bS)-7-hydroxy-5,5,8,8-tetramethyl-15-methylene-3,3a,7,7a,8,11b-hexahydro-1H-6a,11a-(epoxymethano)-3,3a^1-ethanophenanthro[1,10-de][1,3]dioxine-9,14(2H)-dione]	–	–	–	–	–	–	–	–	–	–	much more efficacious in suppressing xenograft tumor growth	no significant loss of body weight	well tolerated	low micromolar to nanomolar	0.98 ± 0.19 µM	0.86 µM	5.6 ± 1.06 µM	4.39 µM	6.02 ± 1.28 µM	IC50 (AsPC1; Table 2a, A-ring modified analogues, read-out: IC50 (μM) AsPC1): 0.81 µM; IC50 (Panc-1; Table 2a, A-ring modified analogues, read-out: IC50 (μM) Panc-1): 6.49 µM; Toxicity in HMEC cells (HMEC cells): lower toxicity; Antiproliferative and colony formation inhibitory effects in MDA-MB-231 cells (MDA-MB-231 cells): potent antiproliferative and colony formation inhibitory effects
